From patent US20150329537A2, “CDK9 INHIBITORS IN THE TREATMENT OF MIDLINE CARCINOMA” (LEADDISCOVERY CENTER GMBH, priority 2011, published 2015)

Key:
[1] = tested on: HCC2429 cells; assay: Proliferation / cell viability assay (Cell Titer Glo); format: cell-based; conditions: FIG. 1; for effect on proliferation of HCC2429 cells (in words): dose response experiments
Procedure: Proliferation assays were performed as described below under materials and methods. […] (Cpd B1 and Ro-3306) were applied at concentrations between 30 and 0.0137 μM. After 72 h incubation with compounds ATP content/proliferation was determined employing CTG (Promega). Relative proliferation values (compared to vehicle control) were used to calculate IC50 values (Excel fit; algorithm #205). IC50s of the respective compound (Y-axis; logarithmic scale) on proliferation of various cell lines (X-axis) are depicted in black bars. White bars indicate that an IC50 could not be determined due to too low activity and therefore was higher than the highest applied concentration in the assays (30 μM). IC50s of compounds on CDK9 inhibitor sensitive cell line HCC2429 are presented in grey bars.
Cell lines were maintained in RPMI 1640 cell culture medium+glutamine (PAN Biotech GmbH, Aidenbach, Germany; order no. P04-22100; P04-05500) supplemented with 10% fetal calf serum “Gold” (PAA Laboratories GmbH, Pasching, Austria; order no. A15-151) and grown in a humidified atmosphere at 37° C., 5% C02. As a first step, an optimal cell density for each cell line was determined to guarantee linearity. For viability assays with compounds, cells were then seeded at a density of 200 to 1000 per well in 25 μl in 384-well plates (Greiner Bio-One, Frickenhausen, Germany; order no. 781080). After overnight incubation at 37° C./5% CO2, 25 nl or 75 nl compounds were added to each sample well by using BIOMEK FX^P Laboratory Automation Workstation (Beckman Coulter, USA). Wells with cells and 0.1% or 0.3% DMSO in culture medium were used as positive controls, wells with cells and 10 μM staurosporine (Selleck Chemicals, Huston, USA) in culture medium were used as negative controls. Upon incubation with compounds for 72 h at 37° C./5% CO2 25 μl Cell Titer Glo reagent (Promega, Madison, USA, order no. G7573; 1:2 diluted with cell culture medium) was added to each well to determine cell viability. […] Luminescence was measured by Envision Plate Reader (Perkin Elmer, USA). […]

[2] = biological target: T1, CDK9/CycT (Homo sapiens, UniProt P50750); assay: Radiometric protein kinase assay (33PanQinase Activity Assay); format: biochemical; conditions: 10 μM compound, compared to vehicle control, 23 different kinases, FIG. 3
T1 construct: purchased ProQinase
T1 sequence (P50750 whole entry): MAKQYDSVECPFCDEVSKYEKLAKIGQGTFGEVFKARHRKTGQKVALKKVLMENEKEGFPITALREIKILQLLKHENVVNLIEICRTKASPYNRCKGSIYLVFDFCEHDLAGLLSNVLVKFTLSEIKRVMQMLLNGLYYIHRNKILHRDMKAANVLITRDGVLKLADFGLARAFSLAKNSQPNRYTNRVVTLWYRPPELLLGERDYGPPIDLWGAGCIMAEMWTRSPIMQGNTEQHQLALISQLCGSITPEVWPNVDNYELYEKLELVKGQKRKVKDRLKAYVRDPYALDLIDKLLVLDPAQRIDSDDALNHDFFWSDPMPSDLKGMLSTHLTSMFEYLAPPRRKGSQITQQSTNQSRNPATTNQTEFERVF
T1 sequence (O60563 whole entry partner): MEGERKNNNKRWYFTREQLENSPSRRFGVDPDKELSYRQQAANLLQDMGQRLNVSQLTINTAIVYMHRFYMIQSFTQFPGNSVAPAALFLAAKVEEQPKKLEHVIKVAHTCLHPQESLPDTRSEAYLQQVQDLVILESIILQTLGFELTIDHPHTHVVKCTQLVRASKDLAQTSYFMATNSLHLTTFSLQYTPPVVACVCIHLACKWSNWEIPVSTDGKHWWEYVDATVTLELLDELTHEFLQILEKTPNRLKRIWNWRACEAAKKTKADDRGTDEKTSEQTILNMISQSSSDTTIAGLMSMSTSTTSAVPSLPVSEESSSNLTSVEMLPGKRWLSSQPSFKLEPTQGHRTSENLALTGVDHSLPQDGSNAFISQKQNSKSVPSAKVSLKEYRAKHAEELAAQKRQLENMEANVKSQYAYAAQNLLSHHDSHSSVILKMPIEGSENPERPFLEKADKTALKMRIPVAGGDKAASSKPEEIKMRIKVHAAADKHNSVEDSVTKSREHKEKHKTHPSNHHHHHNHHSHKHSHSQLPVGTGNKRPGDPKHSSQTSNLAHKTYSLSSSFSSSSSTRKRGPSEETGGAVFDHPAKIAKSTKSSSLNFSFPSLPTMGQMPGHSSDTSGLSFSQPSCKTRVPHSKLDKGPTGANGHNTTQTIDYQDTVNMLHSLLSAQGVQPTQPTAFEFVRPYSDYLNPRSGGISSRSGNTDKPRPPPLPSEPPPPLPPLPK
Procedure: A similar experimental procedure is performed when the resulting activity within ^33PanQinase® assay is done. In advance buffers are prepared but in this case the pipetting sequence is first ATP solution diluted with assay buffer, DMSO or compound solution. The reaction (1 h at 30° C.) is started by addition of a substrate-kinase mix. During the incubation the kinase phosphorylates the substrate (different for each kinase). Due to the fact that the ATP solution contains ^33P labelled ATP the substrate proteins are labeled with ^33P. The reaction is stopped by addition of excess H3PO4. If the reaction is performed in plates binding substrate proteins, said plates are washed to reduce unspecific signals (mainly not used ATP). The incorporation of ^33P into substarte proteins is a direct measure of activity of the respective kinase. Therefore, the incorporated radioactivity is detected by scintillation counting. Data is evaluated, processed and analyzed as described for the LANCE assays.
A radiometric protein kinase assay (33PanQinase® Activity Assay) was used for measuring the kinase activity of the […] protein kinases. […]
The reaction cocktails were incubated at 30° C. for 60 minutes. […] Incorporation of 33Pi (counting of “cpm”) was determined with a microplate scintillation counter (Microbeta, Wallac).

[3] = tested on: Brd4-Nut mutated cell lines (HCC2429, TY-82, 690100, 143100); assay: Proliferation assay on Brd4-Nut mutated versus wild type cell lines; format: cell-based; conditions: mutated: HCC2429, TY-82, 690100, 143100; wild type: Hela, HCC366, H460, HCC1143, hPBMCs; FIG. 4
Procedure: The proliferation results are presented as IC50 in μM. First, the anti-proliferative effect of CDK9 inhibitors is much more pronounced on BrdNut mutated cell lines (=sensitive cell lines).
Cell lines were maintained in RPMI 1640 cell culture medium+glutamine (PAN Biotech GmbH, Aidenbach, Germany; order no. P04-22100; P04-05500) supplemented with 10% fetal calf serum “Gold” (PAA Laboratories GmbH, Pasching, Austria; order no. A15-151) and grown in a humidified atmosphere at 37° C., 5% C02. As a first step, an optimal cell density for each cell line was determined to guarantee linearity. For viability assays with compounds, cells were then seeded at a density of 200 to 1000 per well in 25 μl in 384-well plates (Greiner Bio-One, Frickenhausen, Germany; order no. 781080). After overnight incubation at 37° C./5% CO2, 25 nl or 75 nl compounds were added to each sample well by using BIOMEK FX^P Laboratory Automation Workstation (Beckman Coulter, USA). Wells with cells and 0.1% or 0.3% DMSO in culture medium were used as positive controls, wells with cells and 10 μM staurosporine (Selleck Chemicals, Huston, USA) in culture medium were used as negative controls. […] Luminescence was measured by Envision Plate Reader (Perkin Elmer, USA). […]

inhibition of CDK9 kinase activity, residual activity (in words) [2] | IC50 ([1]; 72 h incubation, ATP content/proliferation by CTG, 30 to 0.0137 μM) [µM] | SMILES | effect on proliferation of HCC2429 cells (in words) [1] | proliferation inhibition in mutated, sensitive cell lines compared with wild type cell lines (in words) [3]
inhibits only CDK9 with high potency | – | COc1ccccc1-c1ncnc(Nc2cccc(CS(N)(=O)=O)c2)n1 [Cpd B1, 3-[(4-(2-Methoxyphenyl)-1,3,5-triazin-2-yl)amino] benzenemethanesulfonamide] | potently affected proliferation of HCC2429 cells | –
– | – | COc1ccccc1-c1cc(Nc2cccc(CS(N)(=O)=O)c2)ncn1 [1073485-20-7P, 3-[[6-(2-methoxyphenyl)-4-pyrimidinyl]amino]-Benzenemethanesulfonamide] | – | much more potent in mutated, sensitive cell lines
– | > 10 | O=C1NC(=NCc2cccs2)S/C1=C\c1ccc2ncccc2c1 [Ro-3306] | did not show comparable effects | –
